Key:
Assay type in all cases: in vivo
[1] = test system: barnyardgrass (Echinochloa crus-galli L.); assay: Test Example 1: foliar treatment, upland pot test, barnyardgrass; conditions: for Growth inhibition rate (%) Barnyardgrass: 31 g/ha active ingredient, observed 17th to 25th day after application
[2] = test system: crabgrass (Digitaria sanguinalis L.); assay: Test Example 1: foliar treatment, upland pot test, crabgrass; conditions: for Growth inhibition rate (%) Crabgrass: 31 g/ha active ingredient, observed 17th to 25th day after application
[3] = test system: green foxtail (Setaria viridis L.); assay: Test Example 1: foliar treatment, upland pot test, green foxtail; conditions: for Growth inhibition rate (%) Green foxtail: 31 g/ha active ingredient, observed 17th to 25th day after application
[4] = test system: redroot pigweed (Amaranthus retroflexus L.); assay: Test Example 1: foliar treatment, upland pot test, redroot pigweed; conditions: for Growth inhibition rate (%) Redroot pigweed: 31 g/ha active ingredient, observed 17th to 25th day after application
Method in brief: (§1)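 Upland soil pots, sown; foliar spray at pigweed cotyledon–2.0 leaf, velvetleaf 0.1–1.5 leaf, rice 1.0–3.0 leaf, wheat 1.7–3.4 leaf. WP/EC formulations, prescribed a.i. rate, 500 L/ha spray volume + 0.1 vol % spreader. Visual % inhibition, d17–25.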

[5] = test system: prickly sida (Sida spinosa L.); assay: Test Example 1: foliar treatment, upland pot test, prickly sida; conditions: for Growth inhibition rate (%) Prickly sida: 31 g/ha active ingredient, observed 17th to 25th day after application
[6] = test system: velvetleaf (Abutilon theophrasti MEDIC.); assay: Test Example 1: foliar treatment, upland pot test, velvetleaf; conditions: for Growth inhibition rate (%) Velvetleaf: 31 g/ha active ingredient, observed 17th to 25th day after application
Method in brief: as §1

rice (Oryza sativa L.) [7] = assay: Test Example 1: foliar treatment, upland pot test, rice; conditions: for Growth inhibition rate (%) Rice: 31 g/ha active ingredient, observed 17th to 25th day after application
Method in brief: as §1

wheat (Triticum spp.) [8] = assay: Test Example 1: foliar treatment, upland pot test, wheat; conditions: for Growth inhibition rate (%) Wheat: 31 g/ha active ingredient, observed 17th to 25th day after application
Method in brief: as §1

corn (Zea mays L.) [9] = assay: Test Example 1: foliar treatment, upland pot test, corn; conditions: for Growth inhibition rate (%) Corn: 31 g/ha active ingredient, observed 17th to 25th day after application
[10] = test system: soybean (Glycine max Merr.); assay: Test Example 1: foliar treatment, upland pot test, soybean; conditions: for Growth inhibition rate (%) Soybean: 31 g/ha active ingredient, observed 17th to 25th day after application
[11] = test system: barnyardgrass (Echinochloa crus-galli L.); assay: Test Example 2: soil application on the day after sowing, barnyardgrass; conditions: for Growth inhibition rate (%) Barnyardgrass: 250 g/ha active ingredient, observed 19th to 28th day after application
Method in brief: (§2)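 Seeds sown in upland field soil in 1/170,000 ha pots; next day, wettable powder or emulsifiable concentrate formulations were diluted in water at 500 L/ha and sprayed onto the soil. Growth was scored visually 19–28 days after application as growth inhibition (0% = untreated, 100% = complete kill).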

[12] = test system: crabgrass (Digitaria sanquinalis L.); assay: Test Example 2: soil application on the day after sowing, crabgrass; conditions: for Growth inhibition rate (%) Crabgrass: 250 g/ha active ingredient, observed 19th to 28th day after application
Method in brief: as §2

[13] = test system: green foxtail (Setaria viridis L.); assay: Test Example 2: soil application on the day after sowing, green foxtail; conditions: for Growth inhibition rate (%) Green foxtail: 250 g/ha active ingredient, observed 19th to 28th day after application
Method in brief: as §2

[14] = test system: redroot pigweed (Amaranthus retroflexus L.); assay: Test Example 2: soil application on the day after sowing, redroot pigweed; conditions: for Growth inhibition rate (%) Redroot pigweed: 250 g/ha active ingredient, observed 19th to 28th day after application
Method in brief: as §2

[15] = test system: prickly sida (Sida spinosa L.); assay: Test Example 2: soil application on the day after sowing, prickly sida; conditions: for Growth inhibition rate (%) Prickly sida: 250 g/ha active ingredient, observed 19th to 28th day after application
Method in brief: as §2

[16] = test system: velvetleaf (Abutilon theophrasti MEDIC.); assay: Test Example 2: soil application on the day after sowing, velvetleaf; conditions: for Growth inhibition rate (%) Velvetleaf: 250 g/ha active ingredient, observed 19th to 28th day after application
Method in brief: as §2

rice (Oryza sativa L.) [17] = assay: Test Example 2: soil application on the day after sowing, rice; conditions: for Growth inhibition rate (%) Rice: 250 g/ha active ingredient, observed 19th to 28th day after application
Method in brief: as §2

wheat (Triticum spp.) [18] = assay: Test Example 2: soil application on the day after sowing, wheat; conditions: for Growth inhibition rate (%) Wheat: 250 g/ha active ingredient, observed 19th to 28th day after application
From the text: Upland field soil was put into a 1/170,000 hectare pot, and seeds of various plants barnyardgrass (Echinochloa crus-galli L.), crabgrass (Digitaria sanquinalis L.), green foxtail (Setaria viridis L.), redroot pigweed (Amaranthus retroflexus L.), prickly sida (Sida spinosa L.), velvetleaf (Abutilon theophrasti MEDIC.), rice (Oryza sativa L.), wheat (Triticum spp.), corn (Zea mays L.) and soybean (Glycine max Merr.)) were sown. On the day after sowing, wettable powders or emulsifiable concentrates of the compounds of the above formula (I) prepared in accordance with a conventional preparation method, were weighed so that the active ingredients became the prescribed amounts, and diluted with water in an amount corresponding to 500 liter per 1 hectare, followed by soil application with a small sprayer.
On the 19th to 28th day after the application, the state of growth of the respective plants was visually observed, and the herbicidal effect was evaluated by a growth inhibition rate (%) of from 0 (equivalent to the non-treated area) to 100% (complete kill).

corn (Zea mays L.) [19] = assay: Test Example 2: soil application on the day after sowing, corn; conditions: for Growth inhibition rate (%) Corn: 250 g/ha active ingredient, observed 19th to 28th day after application
Method in brief: as §2

[20] = test system: soybean (Glycine max Merr.); assay: Test Example 2: soil application on the day after sowing, soybean; conditions: for Growth inhibition rate (%) Soybean: 250 g/ha active ingredient, observed 19th to 28th day after application
Method in brief: as §2

Row | SMILES | Growth inhibition rate (%) Barnyardgrass [1] | Growth inhibition rate (%) Crabgrass [2] | Growth inhibition rate (%) Green foxtail [3] | Growth inhibition rate (%) Redroot pigweed [4] | Growth inhibition rate (%) Prickly sida [5] | Growth inhibition rate (%) Velvetleaf [6] | Growth inhibition rate (%) Rice (rice (Oryza sativa L.) [7]) | Growth inhibition rate (%) Wheat (wheat (Triticum spp.) [8]) | Growth inhibition rate (%) Corn (corn (Zea mays L.) [9]) | Growth inhibition rate (%) Soybean [10] | Growth inhibition rate (%) Barnyardgrass [11] | Growth inhibition rate (%) Crabgrass [12] | Growth inhibition rate (%) Green foxtail [13] | Growth inhibition rate (%) Redroot pigweed [14] | Growth inhibition rate (%) Prickly sida [15] | Growth inhibition rate (%) Velvetleaf [16] | Growth inhibition rate (%) Rice (rice (Oryza sativa L.) [17]) | Growth inhibition rate (%) Wheat (wheat (Triticum spp.) [18]) | Growth inhibition rate (%) Corn (corn (Zea mays L.) [19]) | Growth inhibition rate (%) Soybean [20] | also measured
1 | Cn1ncc(C(=O)c2ccc(S(C)(=O)=O)c(S(C)(=O)=O)c2Cl)c1O [compound 247] |  |  |  |  |  |  |  |  |  |  |  |  |  |  |  |  |  |  |  |  | inhibition at 63 g/ha ([1]; Echinochloa crus-galli, 63 g/ha active ingredient, observed 21st day after application, read-out: Growth inhibition rate (%) Barnyardgrass): 90%; inhibition at 63 g/ha ([2]; Digitaria sanguinalis, 63 g/ha active ingredient, observed 21st day after application, read-out: Growth inhibition rate (%) Crabgrass): 30%; inhibition at 63 g/ha ([3]; Setaria viridis, 63 g/ha active ingredient, observed 21st day after application, read-out: Growth inhibition rate (%) Green foxtail): 50%; inhibition at 63 g/ha ([4]; Amaranthus retroflexus, 63 g/ha active ingredient, observed 21st day after application, read-out: Growth inhibition rate (%) Redroot pigweed): 100%; inhibition at 63 g/ha ([5]; Sida spinosa, 63 g/ha active ingredient, observed 21st day after application, read-out: Growth inhibition rate (%) Prickly sida): 90%; inhibition at 63 g/ha ([6]; Abutilon theophrasti, 63 g/ha active ingredient, observed 21st day after application, read-out: Growth inhibition rate (%) Velvetleaf): 80%; inhibition at 63 g/ha (rice (Oryza sativa L.) [7]; Oryza sativa, 63 g/ha active ingredient, observed 21st day after application, read-out: Growth inhibition rate (%) Rice): 20%; inhibition at 63 g/ha (wheat (Triticum spp.) [8]; Triticum, 63 g/ha active ingredient, observed 21st day after application, read-out: Growth inhibition rate (%) Wheat): 0%; inhibition at 63 g/ha (corn (Zea mays L.) [9]; Zea mays, 63 g/ha active ingredient, observed 21st day after application, read-out: Growth inhibition rate (%) Corn): 0%; inhibition at 63 g/ha ([10]; Glycine max, 63 g/ha active ingredient, observed 21st day after application, read-out: Growth inhibition rate (%) Soybean): 100%; inhibition at 500 g/ha ([11]; Echinochloa crus-galli, 500 g/ha active ingredient, observed 20th day after application, read-out: Growth inhibition rate (%) Barnyardgrass): 100%; inhibition at 500 g/ha ([12]; Digitaria, 500 g/ha active ingredient, observed 20th day after application, read-out: Growth inhibition rate (%) Crabgrass): 100%; inhibition at 500 g/ha ([13]; Setaria viridis, 500 g/ha active ingredient, observed 20th day after application, read-out: Growth inhibition rate (%) Green foxtail): 100%; inhibition at 500 g/ha ([14]; Amaranthus retroflexus, 500 g/ha active ingredient, observed 20th day after application, read-out: Growth inhibition rate (%) Redroot pigweed): 100%; inhibition at 500 g/ha ([15]; Sida spinosa, 500 g/ha active ingredient, observed 20th day after application, read-out: Growth inhibition rate (%) Prickly sida): 75%; inhibition at 500 g/ha ([16]; Abutilon theophrasti, 500 g/ha active ingredient, observed 20th day after application, read-out: Growth inhibition rate (%) Velvetleaf): 100%; inhibition at 500 g/ha (rice (Oryza sativa L.) [17]; Oryza sativa, 500 g/ha active ingredient, observed 20th day after application, read-out: Growth inhibition rate (%) Rice): 98%; inhibition at 500 g/ha (wheat (Triticum spp.) [18]; Triticum, 500 g/ha active ingredient, observed 20th day after application, read-out: Growth inhibition rate (%) Wheat): 10%; inhibition at 500 g/ha (corn (Zea mays L.) [19]; Zea mays, 500 g/ha active ingredient, observed 20th day after application, read-out: Growth inhibition rate (%) Corn): 0%; inhibition at 500 g/ha ([20]; Glycine max, 500 g/ha active ingredient, observed 20th day after application, read-out: Growth inhibition rate (%) Soybean): 50%
2 | COCCOc1c(S(C)(=O)=O)ccc(C(=O)c2c(C)nn(C)c2O)c1C [compound 259] | 95% | 95% | 100% | 95% | 60% | 98% | 70% | 0% | 0% | 95% | 10% | 100% | 60% | 90% | 0% | 70% | 10% | 0% | 0% | 20% | 
3 | CCc1nn(C)c(O)c1C(=O)c1ccc(S(C)(=O)=O)c(OCCOC)c1C [compound 261] | 90% | 90% | 80% | 95% | 50% | 95% | 80% | 5% | 0% | 50% | 50% | 95% | 60% | 100% | 20% | 30% | 20% | 0% | 20% | 0% | 
